The values that follow come from US7405206B2, “Anti-inflammatory androstane derivatives” (Glaxo Group Limited, priority 2001, dated 2008).

The test system of one series is Balb/c mice. Briefly: Oxazolone induced contact hypersensitivity model (ear swelling). It counts as in vivo. To be noted: topical to right ear 1 hour prior to and 3 hours post oxazolone challenge; ear thickness 24 hours post challenge. As to the method: Pharmacological activity in vivo was assessed using an oxazolone induced contact hypersensitivity model in Balb/c mice similar to that described by Cumberbatch et al., Immunology (2002), 105, 466-477.
Balb/c female mice (18-20 g) were sensitised to oxazolone by the addition of 50 μl to the shaved right flank, of 2.5% oxazolone in acetone:olive oil (4:1). Control (unsensitised) mice were dosed with acetone:olive oil. Five days later all mice were challenged by the addition of 25 μl of 0.25% oxazolone in acetone olive oil (4:1) to the dorsal surface of both ears under isoflourane anaesthesia. 10 μl of solution of test compound at the appropriate concentration or vehicle (absolute ethanol) was applied to the dorsal surface of the right ear 1 hour prior to and 3 hours post oxazolone challenge under isoflourane anaesthesia. The left ear remained untreated to allow assessment of systemic exposure. Ear thickness measurements were taken using an engineer's micrometer prior to the addition of steroid and again 24 hours post oxazolone challenge. Results expressed as the percentage inhibition of ear swelling, from which EC50 values were calculated.

A further series deals with Male CD rats. Briefly: Rat model of thymus involution (systemic steroid effects). It is filed as in vivo. The settings on record: daily for 3 days. As to the method: Systemic steroid effects were assessed in a rat model of thymus involution. Male CD rats were dosed intra-tracheally daily for 3 days with saline vehicle (20 μl Tween 80 in 100 ml saline) or with a suspension of test compound (dose volume 200 μL). On day 4 the animals were culled and the thymus removed and weighed.

Series [1] in a line: Hydrolysis in human plasma. It counts as in vitro ADME. To be noted: 37°, 5 μg/ml, LC-MS/MS. As to the method: Compounds were incubated at 37° in human plasma at a concentration of 5 μg/ml. Aliquots were taken at time 0 and every 30 seconds for the next 10 minutes and were extracted by protein precipitation and analysed by LC-MS/MS.
The subject of series [2] is A549 cells stably transfected with a reporter gene containing the NF-κB responsive elements from the ELAM gene promoter coupled to sPAP. Briefly: Functional in vitro assay of glucocorticoid agonist activity (NF-κB/ELAM-sPAP reporter, TNF stimulated). It is filed as cell-based. The settings on record: compound 1 hour at 37° C., then TNF 10 ng/ml for 16 hours. As to the method: Pharmacological activity was assessed in a functional in vitro assay of glucocorticoid agonist activity which is generally predictive of anti-inflammatory or anti-allergic activity in vivo.
The functional assay was based on that described by K. P. Ray et al., Biochem J. (1997), 328, 707-715. A549 cells stably transfected with a reporter gene containing the NF-κB responsive elements from the ELAM gene promoter coupled to sPAP (secreted alkaline phosphatase) were treated with test compounds at appropriate doses for 1 hour at 37° C. The cells were then stimulated with tumour necrosis factor (TNF, 10 ng/ml) for 16 hours, at which time the amount of alkaline phosphatase produced is measured by a standard colourimetric assay. Dose response curves were constructed from which EC50 values were estimated.

On to `C[C@@H]1C[C@H]2[C@@H]3C[C@H](F)C4=CC(=O)C=C[C@]4(C)[C@@]3(F)[C@@H](O)C[C@]2(C)[C@@]1(OC(=O)c1ccco1)C(=O)S[C@H]1CCOC1=O` [Example 1, 6α,9α-Difluoro-17α-[(2-furanylcarbonyl)oxy]-11β-hydroxy-16α-methyl-3-oxo-androsta-1,4-diene-17β-carbothioic acid S-(2-oxo-tetrahydro-furan-3S-yl)ester], for which, in the series on Balb/c mice, the “EC50 (inhibition of ear swelling)” value was determined as 0.3 µg. Besides, in the series with Male CD rats (1000 μg/day intra-tracheally), the “effect on thymus weight” value is given as “no effect”. The molecule also came in with a half-life in series [1] of 1.2 min.
`Cc1noc(C)c1C(=O)OC1(C(=O)SC2CCOC2=O)C(C)CC2C3CC(F)C4=CC(=O)C=CC4(C)C3(F)C(O)CC21C` (stereo not drawn) [Example 11, 6α,9α-Difluoro-17α-[(3,5-dimethylisoxazole-4-carbonyl)oxy]-11β-hydroxy-16α-methyl-3-oxo-androsta-1,4-diene-17β-carbothioic acid S-(2-oxo-tetrahydro-furan-3S-yl)ester] showed an EC50 in series [2] of 28 nM.
`COc1c(C(=O)OC2(C(=O)SC3CCOC3=O)C(C)CC3C4CC(F)C5=CC(=O)C=CC5(C)C4(F)C(O)CC32C)csc1Cl` (stereo not drawn) [Example 12, 17α-[(5-Chloro-4-methoxy-thiophene-3-carbonyl)oxy]-6α,9α-difluoro-11β-hydroxy-16α-methyl-3-oxo-androsta-1,4-diene-17β-carbothioic acid S-(2-oxo-tetrahydro-furan-3S-yl)ester] had an EC50 in series [2] of 40 nM.
As for `CC1CC2C3CC(F)C4=CC(=O)C=CC4(C)C3(F)C(O)CC2(C)C1(OC(=O)c1cc(Cl)sc1Cl)C(=O)SC1CCOC1=O` (stereo not drawn) [Example 15, 17α-[(2,5-Dichlorothiophene-3-carbonyl)oxy]-6α,9α-difluoro-11β-hydroxy-16α-methyl-3-oxo-androsta-1,4-diene-17β-carbothioic acid S-(2-oxo-tetrahydro-furan-3S-yl)ester], in series [2], it took 16 nM to reach a half-maximal effect (EC50).
Turning to `CCCC1O[C@@H]2C[C@H]3[C@@H]4CCC5=CC(=O)C=C[C@]5(C)[C@H]4[C@@H](O)C[C@]3(C)[C@]2(C(=O)CO)O1` (stereo partly shown) [budesonide, reference compound], in the series with Male CD rats (100 mg/day intra-tracheally), the “reduction in thymus weight” value amounted to 65%.
